Laboratory results: patent US20030162759A1, “Aldosterone blocker therapy to prevent or treat inflammation-related disorders” (priority 2000, published 2003)
Values joined by “and” are separate entries in the source; they are usually repeats but may differ in a detail not shown here. Equal values may be shown once. “Also recorded” adds a separate entry of the source.

Columns and labels:
Assay type in all cases: in vivo, rat
aldosterone infused rats = experiment: Assay B aldosterone infusion model: systolic blood pressure by radio-telemetry; settings: saline-drinking, uni-nephrectomized Sprague Dawley rats, eplerenone 100 mpk p.o.
Experimental: Assay B: In vivo Aldosterone Infusion Model Male Sprague Dawley rats (n=39; BW=250 g) […] Uni-nephrectomy performed during implantation of mini-pumps 2. Aldosterone ([…], sc via aizet minipump) 2. […] 1. […] SBP measured by radio-telemetry probes inserted in the abdominal aorta Sacrifice after 4 weeks.

[1] = system: aldosterone + salt treated rats; experiment: Assay C: myocardial histopathology, semi-quantitative injury score 0 to 4; settings: for Myocardial Necrosis (0-4), Mean: group mean
Experimental: The procedure of Assay B was expanded upon in a further study. […] Myocardial tissue from animals in each treatment group was examined after 7, 14, or 30 days of treatment. […] Lesions were preceded by the expression and progressive upregulation of proinflammatory molecules. […] Prior to surgery the animals were individually weighed and placed in one of the following groups: […] Potassium chloride supplementation was added to the saline solution in order to prevent the potential hypokalemia associated with aldosterone excess. […] Louis, Mo.) was inserted subcutaneously at the nape of the neck. Aldosterone was administered at a dose of […]. […] Animals were sacrificed from each group (n=8-13) after 7, 14, or 30 days of treatment. Following exsanguination, hearts and kidneys were isolated, removed, rinsed in cold phosphate-buffered saline, and blotted dry. […] The equatorial regions of the heart were routinely processed into paraffin with an automated tissue processor (Hypercenter XP, Shandon/Lipshaw Inc., Pittsburgh, Pa.) and embedded into fresh paraffin apical side down (Shandon Embedding Center, Shandon/Lipshaw Inc.). […] Ten m sections were stained with the collagen specific stain, Picrosirius Red F3BA (Saturated Picric Acid (Sigma Chemical, St. […] Waterbury, Conn.) (6). Mounted tissues were hydrated with water. […] Slides were coverslipped with #1 cover glass using Permount Histological Mounting Media (Fisher Scientific). Two slides mounted with 5 m sections were cut for each animal. One slide was processed for H&E staining and one for Periodic Acid Schiff (PAS) staining. The H&E and PAS were used for pathological scoring of the hearts. Semi-quantification of myocardial injury was performed as described previously with minor modifications (7). Briefly, a scale from 0 to 4 was used to score the level of myocardial injury. A score of 0 represented no damage. […] Myocardial necrosis was defined as the presence of necrotic changes in cardiomyocytes such as nuclear pyknosis or karyolysis, non-contracting marginal wavy fibers and hypereosinophilia of the cytoplasm, or clear evidence of destruction of the cardiomyocyte membrane.

cyclooxygenase-2 (COX-2) = experiment: Assay C: COX-2 relative mRNA expression in heart (TaqMan); settings: for COX-2, Mean / COX-2: mRNA; for COX-2, Mean: group mean; for COX-2: individual rats; for COX-2 mRNA expression in myocardium: time course 7, 14, 30 days, eplerenone 100 mg/kg/day
Experimental: (§1) The procedure of Assay B was expanded upon in a further study. […] Myocardial tissue from animals in each treatment group was examined after 7, 14, or 30 days of treatment.
(§2) Potassium chloride supplementation was added to the saline solution in order to prevent the potential hypokalemia associated with aldosterone excess.
(§3) At the time of the surgery, an Alzet 2002 osmotic minipump (Alza Corp., Palo Alto, Calif.) containing either vehicle (9% ethanol/87% propylene glycol/4% dH2O) or 1.0 mg/mL d-aldosterone (Sigma Chemical, St. Louis, Mo.) was inserted subcutaneously at the nape of the neck. Aldosterone was administered at a dose of 0.75 g/hour. […] Animals were sacrificed from each group (n=8-13) after 7, 14, or 30 days of treatment.
(§4) The fluorogenic 5′-nuclease assay (TaqMan PCR) using Applied Biosystems' 7700 Sequence Detection System (Applied Biosystems, Foster City, Calif.) allowed for real time detection/quantitation of a specific gene by monitoring the increase in fluorescence of a gene-specific, dye-labeled oligonucleotide probe. Probes for target and reference genes were labeled at the 5′-end with a 6-carboxyfluorescein (6FAM) reporter dye and at the 3′-end with a 6-carboxy-N,N,N′,N′-tetramethylrhodamine (TAMRA) quencher dye. When the probe was annealed to the target gene, fluorescence of 6FAM was prevented by the close proximity of TAMRA. The exonuclease activity of Taq polymerase released the dyes from the oligonucleotide probe by displacing the probe from the target sequence resulting in fluorescence excitation in direct proportion to the amount of target message present. Data analysis was performed using the Sequence Detection System software from Applied Biosystems.
(§5) All primers and probes were designed using Primer Express software supplied with the 7700 Sequence Detection System and synthesized by Applied Biosystems. Standard curves using 5-fold dilutions of total RNA (from 200 ng to 320 pg) were performed to determine the efficiency of each primer/probe set in the TaqMan reaction prior to the analysis of the experimental samples. Primer/probe sets were designed from known sequences of rat genes to be analyzed. All target gene values were normalized to a reference gene, constitutively expressed cyclophilin. Primer/probe set sequences can be found in Table 8.
(§6) RNA was extracted from frozen (−80° C.) rat heart tissue using the Totally RNA Isolation Kit (Ambion, Inc., Austin, Tex.). Tissue was crushed using a stainless steel mortar and pestle, which had been chilled to −80° C. and transferred to a dounce homogenizer (Kontes, Vineland, N.J.) containing 3-10 mL cold denaturation buffer. Tissue was homogenized and transferred to a sterile, 15 mL polypropylene centrifuge tube. An equal volume of phenol:chloroform:isoamyl alcohol (25:24:1) was added, samples were shaken vigorously for 1 min, and incubated on ice for at least 15 min. Samples were centrifuged for 30 min at 10,000 g. The aqueous phase was removed, 1/10 volume of a sodium acetate solution (3.0 M NaOAc pH 4.5) was added, samples were shaken or inverted for 10 seconds, and acid-phenol (premixed with isoamyl alcohol):chloroform (5:1, Ambion, Inc.) was added at an volume equivalent to the starting sample volume. Samples were shaken vigorously for 1 min, followed by a 15-min incubation on ice, and centrifuged for 30 min at 10,000 g. The aqueous phase removed and placed in a clean polypropylene tube. An equal volume of isopropanol (Sigma, St. Louis, Mo.) was added and the samples were mixed and incubated overnight at −20° C. The samples were centrifuged for 30 min at 10,000 g, the supernatant was removed and the RNA pellet was resuspended in DNAse/RNAse-free water. Samples were frozen at −80° C. for at least 2 hours, thawed on wet ice, and diluted for quantitation.

[2] = system: Intercellular Adhesion Molecule-1 (ICAM-1); experiment: Assay C: ICAM-1 relative mRNA expression in heart (TaqMan); settings: for ICAM, Mean / ICAM: mRNA; for ICAM, Mean: group mean; for ICAM: individual rats; for ICAM-1 mRNA expression in myocardium: time course 7, 14, 30 days, eplerenone 100 mg/kg/day
Experimental: as §1, §2, §3, §4, §5, §6

[3] = 7 days of treatment, listed as Aldosterone + salt
[4] = 14 days of treatment, listed as Aldosterone + salt
[5] = 30 days of treatment, listed as Aldosterone + salt
[6] = 7 days of treatment, listed as Eplerenone + aldosterone + salt
[7] = 14 days of treatment, listed as Eplerenone + aldosterone + salt
[8] = 30 days of treatment, listed as Eplerenone + aldosterone + salt

C[C@]12CCC(=O)C=C1CC[C@@H]1[C@@H]2[C@@H](O)C[C@]2(C=O)[C@@H](C(=O)CO)CC[C@@H]12 [aldosterone]
Systolic Blood Pressure (aldosterone infused rats): Systolic blood pressure increased | Myocardial Necrosis (0-4) ([1]; Table 9.14, 7-day protocol, score 0-4, group Mean): 0.0 | Myocardial Necrosis (0-4) ([1]; Table 9.14, 7-day protocol, score 0-4, individual rats): 0.0 | Myocardial Necrosis (0-4), Mean ([1]; 14 days of treatment): 0.8 | Myocardial Necrosis (0-4), Mean ([1]; 30 days of treatment): 2.0 | Myocardial Necrosis (0-4) ([1]; mean ± SEM after 7 days of treatment, eplerenone 100 mg/kg/day): 0.0 ± 0.0 | COX-2, Mean (cyclooxygenase-2 (COX-2); 14 days of treatment): 4.34 AU | COX-2, Mean (cyclooxygenase-2 (COX-2); 30 days of treatment): 4.53 AU | COX-2 (cyclooxygenase-2 (COX-2); [3]): 2.10 AU and 0.70 AU and 0.82 AU | COX-2 (cyclooxygenase-2 (COX-2); [4]): 5.80 AU and 4.18 AU | COX-2 (cyclooxygenase-2 (COX-2); [5]): 3.10 AU and 8.20 AU | COX-2 mRNA expression in myocardium (cyclooxygenase-2 (COX-2)): significantly increased | ICAM, Mean ([2]; 14 days of treatment): 1.47 AU | ICAM, Mean ([2]; 30 days of treatment): 1.81 AU | ICAM [2, 3]: 1.39 AU and 0.80 AU and 1.68 AU | ICAM [2, 4]: 1.16 AU | ICAM [2, 5]: 1.50 AU | ICAM-1 mRNA expression in myocardium [2]: upregulated at day 14 and 30

COC(=O)[C@@H]1CC2=CC(=O)CC[C@]2(C)[C@@]23O[C@@H]2C[C@@]2(C)[C@@H](CC[C@@]24CCC(=O)O4)[C@H]13 [eplerenone, Pregn-4-ene-7,21-dicarboxylic acid, 9,11-epoxy-17-hydroxy-3-oxo-, γ-lactone, methyl ester, (7α, 11α, 17β) -]
Systolic Blood Pressure (aldosterone infused rats): significantly reduced, but did not normalize blood pressure; also recorded: depression of this elevation | Myocardial injury (vascular and myocardial damage, histopathology) ([1]; 7, 14, 30 days, eplerenone 100 mg/kg/day): markedly attenuated myocardial injury at all time points; also recorded: markedly attenuated this initial vascular inflammatory response and subsequent myocardial injury | Myocardial Necrosis (0-4), Mean ([1]; 14 days of treatment): 0.5 | Myocardial Necrosis (0-4), Mean ([1]; 30 days of treatment): 0.0 | Myocardial Necrosis (0-4) ([1]; individual rats, 14 days of treatment, eplerenone 100 mg/kg/day, listed as Eplerenone + aldosterone + salt): 0.0 | Myocardial Necrosis (0-4) ([1]; mean ± SEM after 30 days of treatment, eplerenone 100 mg/kg/day): 0.0 ± 0.0 | COX-2, Mean (cyclooxygenase-2 (COX-2); 7 days of treatment): 1.25 AU | COX-2, Mean (cyclooxygenase-2 (COX-2); 14 days of treatment): 2.02 AU | COX-2, Mean (cyclooxygenase-2 (COX-2); 30 days of treatment): 2.28 AU | COX-2 (cyclooxygenase-2 (COX-2); [6]): 1.19 AU and 0.60 AU (2×) and 0.82 AU and 0.91 AU | COX-2 (cyclooxygenase-2 (COX-2); [7]): 0.70 AU and 0.99 AU and 0.86 AU | COX-2 (cyclooxygenase-2 (COX-2); [8]): 0.55 AU and 1.34 AU | COX-2 mRNA expression in myocardium (cyclooxygenase-2 (COX-2)): inhibition of early time-course expression of myocardial COX-2; also recorded: significantly reduced | ICAM, Mean ([2]; 7 days of treatment): 0.83 AU | ICAM, Mean ([2]; 14 days of treatment): 1.19 AU | ICAM, Mean ([2]; 30 days of treatment): 1.22 AU | ICAM [2, 6]: 0.91 AU and 0.89 AU (2×) and 0.40 AU and 0.58 AU and 1.00 AU | ICAM [2, 7]: 1.20 AU and 0.95 AU and 1.26 AU and 1.56 AU and 0.98 AU (2×) and 0.79 AU and 0.83 AU | ICAM [2, 8]: 1.21 AU and 1.26 AU and 0.60 AU and 0.99 AU | ICAM-1 mRNA expression in myocardium [2]: significantly reduced; also recorded: inhibition of early time-course expression of myocardial ICAM-1 and VCAM-1
